Test results reported in patent US11161854B2, “Indazolyl-spiro[2.2]pentane-carbonitrile derivatives as LRRK2 inhibitors, pharmaceutical compositions, and uses thereof” (Merck Sharp & Dohme Corp., priority 2017, dated 2021).
pIC50: −log10 of the molar value.

Biological target: GST-tagged truncated human mutant G2019S LRRK2 (Homo sapiens (Human), UniProt Q5S007, G2019S)
Assay: LRRK2 G2019S Km ATP LanthaScreen Assay
Format: biochemical
Conditions: 134 μM ATP (Km ATP); fluorescein-labeled LRRKtide substrate; mean IC50 values
Protocol: The IC50 values reported herein were measured as follows.
Biological Assay: LRRK2 Km ATP LanthaScreen™ Assay
The data presented for the Km ATP LanthaScreen™ Assay represents mean IC50 values based on several test results and may have reasonable deviations depending on the specific conditions and reagents used. Assays were performed in the presence of 134 μM ATP (Km ATP). Upon completion, the assay was stopped and phosphorylated substrate detected with a terbium (Tb)-labeled anti-pERM antibody (cat. no. PV4898). The compound dose response was prepared by diluting a 10 mM stock of compound to a maximum concentration of […] in 100% dimethylsulfoxide followed by custom fold serial dilution in dimethylsulfoxide nine times. Twenty nanoliters of each dilution was spotted via a Labcyte Echo onto a 384-well black-sided plate (Corning 3575) followed by 15 μl of a 1.25 nM enzyme solution in 1× assay buffer (50 mM Tris pH 8.5, 10 mM MgCl2, 0.01% Brij-35, 1 mM EGTA, 2 mM dithiothreitol, 0.05 mM sodium orthovanadate). Following a 15-minute incubation at room temperature, the kinase reaction was started with the addition of 5 μl of 400 nM fluorescein-labeled LRRKtide peptide substrate and 134 μM ATP solution in 1× assay buffer. The reaction was allowed to progress at ambient temperature for 90 minutes. The reaction was then stopped by the addition of 20 μl of TR-FRET Dilution Buffer (Life Technologies, Carlsbad, Calif.) containing 2 nM Tb-labeled anti-phospho LRRKtide antibody and 10 mM EDTA (Life Technologies, Carlsbad, Calif.). After an incubation of 1 hour at room temperature, the plate was read on an EnVision multimode plate reader (Perkin Elmer, Waltham, Mass.) with an excitation wavelength of 337 nm (Laser) and a reading emission at both 520 and 495 nm. […] Abase uses a 4 parameter (4P) logistic fit based on the Levenberg-Marquardt algorithm.

Sequence of GST-tagged truncated human mutant G2019S LRRK2 (Q5S007 970-2527 G2019S): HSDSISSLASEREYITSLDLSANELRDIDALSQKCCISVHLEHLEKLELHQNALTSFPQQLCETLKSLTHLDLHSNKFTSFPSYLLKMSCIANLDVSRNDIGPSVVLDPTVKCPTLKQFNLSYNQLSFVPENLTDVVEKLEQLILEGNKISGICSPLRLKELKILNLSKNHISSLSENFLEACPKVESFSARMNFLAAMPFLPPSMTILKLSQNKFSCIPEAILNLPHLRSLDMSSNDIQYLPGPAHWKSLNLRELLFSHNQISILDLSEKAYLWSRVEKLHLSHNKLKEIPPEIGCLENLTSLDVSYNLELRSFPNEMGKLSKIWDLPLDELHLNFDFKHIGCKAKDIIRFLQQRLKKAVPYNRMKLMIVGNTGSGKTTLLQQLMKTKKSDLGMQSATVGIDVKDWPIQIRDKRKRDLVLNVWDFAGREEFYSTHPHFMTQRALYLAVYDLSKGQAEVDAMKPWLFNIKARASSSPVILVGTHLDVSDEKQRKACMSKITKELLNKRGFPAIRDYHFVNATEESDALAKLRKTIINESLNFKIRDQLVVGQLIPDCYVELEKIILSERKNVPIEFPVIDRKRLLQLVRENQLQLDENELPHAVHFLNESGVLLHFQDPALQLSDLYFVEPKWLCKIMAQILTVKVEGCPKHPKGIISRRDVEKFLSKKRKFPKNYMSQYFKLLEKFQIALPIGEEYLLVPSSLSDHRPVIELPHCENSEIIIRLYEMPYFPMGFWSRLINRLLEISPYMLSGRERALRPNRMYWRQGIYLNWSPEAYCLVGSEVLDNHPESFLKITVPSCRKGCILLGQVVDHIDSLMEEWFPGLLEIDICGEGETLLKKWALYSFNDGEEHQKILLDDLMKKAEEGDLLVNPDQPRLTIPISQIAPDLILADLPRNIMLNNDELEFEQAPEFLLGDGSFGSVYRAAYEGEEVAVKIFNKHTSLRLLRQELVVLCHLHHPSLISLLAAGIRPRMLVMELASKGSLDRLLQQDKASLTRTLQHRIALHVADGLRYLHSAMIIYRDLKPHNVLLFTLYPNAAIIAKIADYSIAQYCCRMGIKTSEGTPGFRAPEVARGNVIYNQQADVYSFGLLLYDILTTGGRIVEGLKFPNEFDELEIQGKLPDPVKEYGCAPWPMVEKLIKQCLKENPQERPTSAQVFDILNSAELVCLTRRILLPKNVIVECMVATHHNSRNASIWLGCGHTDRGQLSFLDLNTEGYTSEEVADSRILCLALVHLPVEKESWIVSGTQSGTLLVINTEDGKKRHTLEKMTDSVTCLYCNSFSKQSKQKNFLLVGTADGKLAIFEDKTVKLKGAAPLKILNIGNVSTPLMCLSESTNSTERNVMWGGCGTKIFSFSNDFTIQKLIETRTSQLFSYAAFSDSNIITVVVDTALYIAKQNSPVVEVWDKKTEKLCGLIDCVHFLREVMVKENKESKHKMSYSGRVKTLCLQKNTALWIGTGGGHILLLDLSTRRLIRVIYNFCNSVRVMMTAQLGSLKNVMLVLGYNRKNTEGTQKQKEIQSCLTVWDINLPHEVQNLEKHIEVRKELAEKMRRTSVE

SMILES | pIC50
CC(C)(O)[C@@H]1CCN(c2cc(-n3ncc4ccc(C5(C#N)CC56CC6)cc43)ncn2)C1 (single isomer, unassigned) [Example 1.4-1, (R or S)-1-(1-(6-((R)-3-(2-hydroxypropan-2-yl)pyrrolidin-1-yl)pyrimidin-4-yl)-1H-indazol-6-yl)spiro[2.2]pentane-1-carbonitrile] | 9.00
COCc1nc(N2CC3(C(C)(C)O)CC2C3)cc(-n2ncc3ccc(C4(C#N)CC45CC5)cc32)n1 (single isomer, unassigned) [Example 2.3-1, (R or S)-1-(1-(6-(4-(2-hydroxypropan-2-yl)-2-azabicyclo[2.1.1]hexan-2-yl)-2-(methoxymethyl)pyrimidin-4-yl)-1H-indazol-6-yl)spiro[2.2]pentane-1-carbonitrile] | 8.96
COCc1nc(N2CC3(C(C)(C)O)CC2C3)cc(-n2ncc3ccc(C4(C#N)CC45CC5)cc32)n1 (single isomer, unassigned) [Example 2.3-2, (R or S)-1-(1-(6-(4-(2-hydroxypropan-2-yl)-2-azabicyclo[2.1.1]hexan-2-yl)-2-(methoxymethyl)pyrimidin-4-yl)-1H-indazol-6-yl)spiro[2.2]pentane-1-carbonitrile] | 8.92
Cc1nc(N2CC3(C(C)(C)O)CC2C3)cc(-n2ncc3ccc(C4(C#N)CC45CC5)cc32)n1 (single isomer, unassigned) [Example 2.4-1, 1-(1-(6-(4-(2-hydroxypropan-2-yl)-2-azabicyclo[2.1.1]hexan-2-yl)-2-methylpyrimidin-4-yl)-1H-indazol-6-yl)spiro[2.2]pentane-1-carbonitrile] | 8.68
Cc1nc(N2CC3(C(C)(C)O)CC2C3)cc(-n2ncc3ccc(C4(C#N)CC45CC5)cc32)n1 (single isomer, unassigned) [Example 2.4-2, 1-(1-(6-(4-(2-hydroxypropan-2-yl)-2-azabicyclo[2.1.1]hexan-2-yl)-2-methylpyrimidin-4-yl)-1H-indazol-6-yl)spiro[2.2]pentane-1-carbonitrile] | 9.22
COc1nc(N2CC3(C(C)(C)O)CC2C3)cc(-n2ncc3ccc(C4(C#N)CC45CC5)cc32)n1 (single isomer, unassigned) [Example 2.5-1, 1-(1-(6-(4-(2-hydroxypropan-2-yl)-2-azabicyclo[2.1.1]hexan-2-yl)-2-methoxypyrimidin-4-yl)-1H-indazol-6-yl)spiro[2.2]pentane-1-carbonitrile] | 9.05
COc1nc(N2CC3(C(C)(C)O)CC2C3)cc(-n2ncc3ccc(C4(C#N)CC45CC5)cc32)n1 (single isomer, unassigned) [Example 2.5-2, 1-(1-(6-(4-(2-hydroxypropan-2-yl)-2-azabicyclo[2.1.1]hexan-2-yl)-2-methoxypyrimidin-4-yl)-1H-indazol-6-yl)spiro[2.2]pentane-1-carbonitrile] | 9.10
CNc1nc(N2CC3(C(C)(C)O)CC2C3)cc(-n2ncc3ccc(C4(C#N)CC45CC5)cc32)n1 (single isomer, unassigned) [Example 2.7-1, 1-(1-(6-(4-(2-hydroxypropan-2-yl)-2-azabicyclo[2.1.1]hexan-2-yl)-2-(methylamino)pyrimidin-4-yl)-1H-indazol-6-yl)spiro[2.2]pentane-1-carbonitrile] | 8.52
CNc1nc(N2CC3(C(C)(C)O)CC2C3)cc(-n2ncc3ccc(C4(C#N)CC45CC5)cc32)n1 (single isomer, unassigned) [Example 2.7-2, 1-(1-(6-(4-(2-hydroxypropan-2-yl)-2-azabicyclo[2.1.1]hexan-2-yl)-2-(methylamino)pyrimidin-4-yl)-1H-indazol-6-yl)spiro[2.2]pentane-1-carbonitrile] | 9.22
CNc1nc(N2CC[C@H](C(F)F)C2)cc(-n2ncc3ccc(C4(C#N)CC45CC5)cc32)n1 (single isomer, unassigned) [Example 2.8-1] | 9.15
CNc1nc(N2CC[C@H](C(F)F)C2)cc(-n2ncc3ccc(C4(C#N)CC45CC5)cc32)n1 (single isomer, unassigned) [Example 2.8-2] | 8.96
C[C@H]1CN(c2cc(-n3ncc4ccc(C5(C#N)CC56CC6)cc43)ncn2)CCN1C1COC1 (single isomer, unassigned) [Example 3.1, (R or S)-1-(1-(6-((S)-3-methyl-4-(oxetan-3-yl)piperazin-1-yl)pyrimidin-4-yl)-1H-indazol-6-yl)spiro[2.2]pentane-1-carbonitrile] | 9.22
CC1C(C(C)(C)O)CCN1c1cc(-n2ncc3ccc([C@@]4(C#N)CC45CC5)cc32)ncn1 (single isomer, unassigned) [Example 3.5-1] | 6.91
CC1C(C(C)(C)O)CCN1c1cc(-n2ncc3ccc([C@]4(C#N)CC45CC5)cc32)ncn1 (single isomer, unassigned) [Example 3.5-2] | 7.50
CC1C(C(C)(C)O)CCN1c1cc(-n2ncc3ccc([C@@]4(C#N)CC45CC5)cc32)ncn1 (single isomer, unassigned) [Example 3.5-3] | 8.72
CC1C(C(C)(C)O)CCN1c1cc(-n2ncc3ccc([C@@]4(C#N)CC45CC5)cc32)ncn1 (single isomer, unassigned) [Example 3.5-4] | 9.22
CC1C(C(C)(C)O)CCN1c1cc(-n2ncc3ccc([C@@]4(C#N)CC45CC5)cc32)ncn1 (single isomer, unassigned) [Example 3.5-5] | 7.56
CC1C(C(C)(C)O)CCN1c1cc(-n2ncc3ccc([C@]4(C#N)CC45CC5)cc32)ncn1 (single isomer, unassigned) [Example 3.5-6] | 8.31

SMILES | pIC50
CC1C(C(C)(C)O)CCN1c1cc(-n2ncc3ccc([C@@]4(C#N)CC45CC5)cc32)ncn1 (single isomer, unassigned) [Example 3.5-7] | 8.29
CC1C(C(C)(C)O)CCN1c1cc(-n2ncc3ccc([C@]4(C#N)CC45CC5)cc32)ncn1 (single isomer, unassigned) [Example 3.5-8] | 8.96
CC1CN(c2cc(-n3ncc4ccc([C@@]5(C#N)CC56CC6)cc43)ncn2)CC1C(C)(C)O (single isomer, unassigned) [Example 3.6-1] | 8.66
CC1CN(c2cc(-n3ncc4ccc([C@]5(C#N)CC56CC6)cc43)ncn2)CC1C(C)(C)O (single isomer, unassigned) [Example 3.6-2] | 9.22
CC1CN(c2cc(-n3ncc4ccc([C@@]5(C#N)CC56CC6)cc43)ncn2)CC1C(C)(C)O (single isomer, unassigned) [Example 3.6-3] | 8.01
CC1CN(c2cc(-n3ncc4ccc([C@]5(C#N)CC56CC6)cc43)ncn2)CC1C(C)(C)O (single isomer, unassigned) [Example 3.6-4] | 8.68
C[C@@H]1CN(c2cc(-n3ncc4ccc([C@@]5(C#N)CC56CC6)cc43)ncn2)CCN1C1CCOC1 (single isomer, unassigned) [Example 3.7-1] | 8.10
C[C@@H]1CN(c2cc(-n3ncc4ccc([C@]5(C#N)CC56CC6)cc43)ncn2)CCN1C1CCOC1 (single isomer, unassigned) [Example 3.7-2] | 8.77
C[C@@H]1CN(c2cc(-n3ncc4ccc([C@@]5(C#N)CC56CC6)cc43)ncn2)CCN1C1CCOC1 (single isomer, unassigned) [Example 3.7-3] | 8.05
C[C@@H]1CN(c2cc(-n3ncc4ccc([C@]5(C#N)CC56CC6)cc43)ncn2)CCN1C1CCOC1 (single isomer, unassigned) [Example 3.7-4] | 8.70
C[C@H]1CN(c2cc(-n3ncc4ccc([C@@]5(C#N)CC56CC6)cc43)ncn2)CCN1C1CCOC1 (single isomer, unassigned) [Example 3.8-1] | 8.80
C[C@H]1CN(c2cc(-n3ncc4ccc([C@@]5(C#N)CC56CC6)cc43)ncn2)CCN1C1CCOC1 (single isomer, unassigned) [Example 3.8-2] | 9.10
C[C@H]1CN(c2cc(-n3ncc4ccc([C@@]5(C#N)CC56CC6)cc43)ncn2)CCN1C1CCOC1 (single isomer, unassigned) [Example 3.8-3] | 8.89
COC1(C(C)(C)O)CCN(c2cc(-n3ncc4ccc([C@@]5(C#N)CC56CC6)cc43)ncn2)C1 (single isomer, unassigned) [Example 3.10-1] | 7.82
COC1(C(C)(C)O)CCN(c2cc(-n3ncc4ccc([C@]5(C#N)CC56CC6)cc43)ncn2)C1 (single isomer, unassigned) [Example 3.10-2] | 8.68
COC1(C(C)(C)O)CCN(c2cc(-n3ncc4ccc([C@@]5(C#N)CC56CC6)cc43)ncn2)C1 (single isomer, unassigned) [Example 3.10-3] | 8.51
COC1(C(C)(C)O)CCN(c2cc(-n3ncc4ccc([C@]5(C#N)CC56CC6)cc43)ncn2)C1 (single isomer, unassigned) [Example 3.10-4] | 9.05
N#C[C@]1(c2ccc3cnn(-c4cc(N5CC(O)C6(CC6)C5)ncn4)c3c2)CC12CC2 (single isomer, unassigned) [Example 3.11-1] | 8.17
